This is an account of results in patent US9198422B2, “Pesticidal pyrazole compounds” (BASF SE, priority 2011, dated 2015).

What all share (format): in vivo
One assay deals with Plutella xylostella. The assay can be described thus: B.10 Diamondback moth cabbage leaf disk dip test. To be noted: 500 ppm; 72 h. On the procedure: B.10 Diamondback Moth (Plutella xylostella)
The active compounds were formulated in 1:1 (vol:vol) water:aceton and 0.1% (vol/vol) Alkamuls EL 620 surfactant. A 6 cm leaf disk of cabbage leaves was dipped in the test solution for 3 seconds and allowed to air dry in a Petri plate lined with moist filter paper. The leaf disk was inoculated with 10 third instar larvae and kept at 25-27° C. and 50-60% humidity for 3 days. Mortality was assessed after 72 h of treatment.

In a further assay the test system is Myzus persicae. Kind of assay: B.5 Green peach aphid spray test on bell pepper plants. To be noted: for mortality at 0.1 ppm: read-out: % mortality in comparison to untreated controls; for mortality at 10 ppm: 120 h, after 5 days, read-out: mortality in comparison with untreated controls. The procedure: B.5 Green Peach Aphid (Myzus persicae)
(§1) The active compounds were formulated in cyclohexanone as a 10,000 ppm solution supplied in 1.3 ml ABgene® tubes. These tubes were inserted into an automated electrostatic sprayer equipped with an atomizing nozzle and they served as stock solutions for which lower dilutions were made in 1:1 (vol:vol) water:aceton. A nonionic surfactant (Kinetic®) was included in the solution at a volume of 0.01% (v/v).
Bell pepper plants at the first true-leaf stage were infested prior to treatment by placing heavily infested leaves from the main colony on top of the treatment plants. Aphids were allowed to transfer overnight to accomplish an infestation of 30-50 aphids per plant and the host leaves were removed. The infested plants were then sprayed by an automated electrostatic plant sprayer equipped with an atomizing spray nozzle. The plants were dried in the sprayer fume hood, removed, and then maintained in a growth room under fluorescent lighting in a 24 hour photoperiod at 25° C. and 20-40% relative humidity. Aphid mortality on the treated plants, relative to mortality on untreated control plants, was determined after 5 days.

The subject of a further assay is Anthonomus grandis. The assay can be described thus: B.6 Boll weevil insect diet microtiter test. Particulars: 120 h, egg and larval mortality, 5 days, read-out: mortality in comparison with untreated controls. On the procedure:
B.6 Boll Weevil (Anthonomus grandis)
The compounds were formulated in 3:1 (vol:vol) water:DMSO.
For evaluating control of boll weevil (Anthonomus grandis) the test unit consisted of 24-well-microtiter plates containing an insect diet and 20-30 A. grandis eggs. Different concentrations of formulated compounds were sprayed onto the insect diet at 20 μl, using a custom built micro atomizer, at two replications. After application, the microtiter plates were incubated at 23±1° C. and 50±5% relative humidity for 5 days. Egg and larval mortality was then visually assessed.

For the next assay, the system named is Aphis craccivora. The assay can be described thus: B.1 Cowpea aphid spray test on potted cowpea plants. To be noted: for mortality at 0.3 ppm: read-out: % mortality in comparison to untreated controls; for mortality at 500 ppm: population reduction assessed after 24, 72 and 120 hours, read-out: mortality in comparison with untreated controls. On the procedure:
If not otherwise specified the test solutions were prepared as follows:
The active compound was dissolved at the desired concentration in a mixture of 1:1 (vol:vol) distilled water:aceton. The test solution was prepared at the day of use and in general at concentrations of ppm (wt/vol).
B.1 Cowpea Aphid (Aphis craccivora)
Potted cowpea plants colonized with 100-150 aphids of various stages were sprayed after the pest population had been recorded. Population reduction was assessed after 24, 72, and 120 hours.

A further assay has as its system Megoura viciae. Kind of assay: B.4 Vetch aphid bean leaf disk microtiter test. Particulars: foliar, 144 h, 6 days, read-out: mortality in comparison with untreated controls. The procedure:
B.4 Vetch Aphid (Megoura viciae)
The active compounds were formulated in 3:1 (vol:vol) water:DMSO with different concentrations of formulated compounds.
Bean leaf disks were placed into microtiterplates filled with 0.8% agar-agar and 2.5 ppm OPUS™. The leaf disks were sprayed with 2.5 μl of the test solution and 5 to 8 adult aphids were placed into the microtiter plates which were then closed and kept at 23±1° C. and 50±5% relative humidity under fluorescent light for 6 days. Mortality was assessed on the basis of vital, reproduced aphids. Aphid mortality and fecundity was then visually assessed.

For the next assay, the system named is Aphis gossypii. Kind of assay: B.2 Cotton aphid, mixed life stages, spray test on cotton plants. To be noted: for mortality at 0.1 ppm / mortality at 3 ppm: read-out: % mortality in comparison to untreated controls; for mortality at 10 ppm: 120 h, after 5 days, read-out: mortality in comparison with untreated controls. The procedure: B.2 Cotton Aphid (Aphis gossypii, Mixed Life Stages)
as §1
Cotton plants at the cotyledon stage were infested with aphids prior to treatment by placing a heavily infested leaf from the main aphid colony on top of each cotyledon. Aphids were allowed to transfer overnight to accomplish an infestation of 80-100 aphids per plant and the host leaf was removed. The infested plants were then sprayed by an automated electrostatic plant sprayer equipped with an atomizing spray nozzle. The plants were dried in the sprayer fume hood, removed from the sprayer, and then maintained in a growth room under fluorescent lighting in a 24-hr photoperiod at 25° C. and 20-40% relative humidity. Aphid mortality on the treated plants, relative to mortality on untreated control plants, was determined after 5 days.

For another assay, the system named is Bemisia argentifolii. Kind of assay: B.3 Silverleaf whitefly, adult, spray test on cotton plants. To be noted: for mortality at 3 ppm / mortality at 1 ppm / mortality at 100 ppm: read-out: % mortality in comparison to untreated controls; for mortality at 10 ppm: 72 h, 3 days after treatment, read-out: mortality in comparison with untreated controls. The procedure: B.3 Silverleaf Whitefly (Bemisia argentifolii, Adult)
as §1
Cotton plants at the cotyledon stage (one plant per pot) were sprayed by an automated electrostatic plant sprayer equipped with an atomizing spray nozzle. The plants were dried in the sprayer fume hood and then removed from the sprayer. Each pot was placed into a plastic cup and 10 to 12 whitefly adults (approximately 3-5 days old) were introduced. The insects were collected using an aspirator and 0.6 cm, nontoxic Tygon® tubing (R-3603) connected to a barrier pipette tip. The tip, containing the collected insects, was then gently inserted into the soil containing the treated plant, allowing insects to crawl out of the tip to reach the foliage for feeding. Cups were covered with a reusable screened lid (150-micron mesh polyester screen PeCap from Tetko, Inc.). Test plants were maintained in a growth room at 25° C. and 20-40% relative humidity for 3 days, avoiding direct exposure to fluorescent light (24 hour photoperiod) to prevent trapping of heat inside the cup. Mortality was assessed 3 days after treatment, compared to untreated control plants.

In the next assay the test system is Nephotettix virescens. The assay can be described thus: B.9 Rice green leafhopper spray test on rice seedlings. To be noted: 72 h, after 72 hours, read-out: mortality in comparison with untreated controls. The procedure:
B.9 Rice Green Leafhopper (Nephotettix virescens)
Rice seedlings were cleaned and washed 24 hours before spraying. The active compounds were formulated in 1:1 (vol:vol) water:aceton, and 0.1% vol/vol surfactant (EL 620) was added. Potted rice seedlings were sprayed with 5 ml test solution, air dried, placed in cages and inoculated with 10 adults. Treated rice plants were kept at 28-29° C. and relative humidity of 50-60%. Percent mortality was recorded after 72 hours.

Another assay has as its system Dichromothrips corbetti. Kind of assay: B.8 Orchid thrips petal dip test. Particulars: 72 h, after 72 hours, read-out: mortality in comparison with untreated controls. On the procedure: B.8 Orchid Thrips (Dichromothrips corbetti)
The active compounds were formulated as a 1:1 (vol:vol) water:aceton solution. Surfactant (Alkamuls EL 620) was added at the rate of 0.1% (vol/vol). Vanda orchids petals were cleaned, washed and air dried prior to spraying. Petals were dipped into the test solution for 3 seconds, air dried, placed inside a resealable plastic and inoculated with 20 adults. The treated petals were kept inside the holding room at 28-29° C. and relative humidity of 50-60%. Percent mortality was recorded after 72 hours.

Usually mortality stands for the share of the test organisms that died. On to `CCN(C(=O)c1cnn(C(C)C(C)C)c1C)c1ccnnc1` (centres unmarked) [I-98], for which, in the assay with Plutella xylostella, the “feeding damage (FD)” value was 25%. In addition, the mortality at 0.1 ppm with Myzus persicae and with Aphis gossypii was 95% throughout. Further, the mortality at 10 ppm with Myzus persicae, in the assay on Aphis gossypii and with Bemisia argentifolii was at least 75% each time. Moreover, the mortality at 2500 ppm in the assay with Anthonomus grandis and in the assay with Megoura viciae was at least 75% throughout. Further, the mortality at 0.3 ppm with Aphis craccivora is 75%. In the assay on Aphis craccivora, the mortality at 500 ppm was at least 75%. The mortality at 3 ppm in the assay on Bemisia argentifolii amounted to 75%.
As to `CCN(C(=O)c1cnn(CC(C)C)c1C)c1ccnnc1` [#175 in WO10/034737, reference compound], the mortality at 0.1 ppm in the assay with Myzus persicae and with Aphis gossypii was 0% throughout. Further, the mortality at 0.3 ppm with Aphis craccivora turned out to be 0%.
As for `Cc1c(C(=O)Nc2ccnnc2)cnn1C(C)C` [#5 of Table 14 in WO10/034737, reference compound], in the assay on Nephotettix virescens, the mortality at 500 ppm is 0%. In addition, in the assay on Bemisia argentifolii, the mortality at 1 ppm came out at 0%.
In the case of `Cc1c(C(=O)N(C)c2cccnc2)cnn1CC(F)(F)F` [#173 in WO09/027393, reference compound], the mortality at 10 ppm with Myzus persicae is 50%; in the assay on Bemisia argentifolii it was 25%.
For `CCN(C(=O)c1cnn(C(C)C2(C#N)CC2)c1C)c1ccnnc1` (centres unmarked) [I-198], the mortality at 10 ppm in the assay with Myzus persicae, with Aphis gossypii and in the assay on Bemisia argentifolii was at least 75% in each case. Moreover, the mortality at 500 ppm in the assay on Aphis craccivora and in the assay with Dichromothrips corbetti was at least 75% each time. In the assay on Bemisia argentifolii, the mortality at 1 ppm came out at 100%.
In the case of `CCn1ncc(C(=O)N(C)c2cccnc2)c1C` [#180 in WO09/0027393, reference compound], the mortality at 100 ppm with Bemisia argentifolii came out at 0%.
For the compound `CCN(C(=O)c1cnn(C(C)C(F)F)c1C)c1ccnnc1` (centres unmarked) [I-201], the mortality at 10 ppm with Myzus persicae, in the assay on Aphis gossypii and in the assay with Bemisia argentifolii was at least 75% throughout. Moreover, the mortality at 500 ppm in the assay on Aphis craccivora and in the assay on Dichromothrips corbetti was at least 75% each time. Moreover, the mortality at 1 ppm in the assay with Bemisia argentifolii stood at 100%.
On to `Cc1c(C(=O)Nc2ccnnc2)cnn1C(C)(C)C` [#7 of Table 14 in WO10/034737, reference compound], for which the mortality at 0.3 ppm with Aphis craccivora was 0%. In the assay with Aphis gossypii, the mortality at 3 ppm amounted to 25%.
Turning to `Cc1c(C(=O)N(C)c2cccnc2)cnn1C(C)C(F)(F)F` (centres unmarked) [I-377], the mortality at 2500 ppm in the assay on Anthonomus grandis and in the assay on Megoura viciae was at least 75% in each case. Besides, the mortality at 500 ppm with Aphis craccivora is at least 75%. The mortality at 10 ppm in the assay with Aphis gossypii and in the assay on Bemisia argentifolii was at least 75% throughout. Also, the mortality at 100 ppm with Bemisia argentifolii was determined as 100%.
On to `Cc1c(C(=O)N(C)c2ccnnc2)cnn1C(C(F)(F)F)C(F)(F)F` [I-38, N,5-dimethyl-N-pyridazin-4-yl-1-[2,2,2-trifluoro-1-(trifluoromethyl)ethyl]pyrazole-4-carboxamide], for which the mortality at 10 ppm in the assay with Myzus persicae and in the assay on Aphis gossypii was at least 75% throughout. Moreover, the mortality at 500 ppm in the assay with Aphis craccivora is at least 75%. Besides, in the assay with Megoura viciae, the mortality at 2500 ppm was at least 75%.
As to `Cc1c(C(=O)Nc2ccnnc2)cnn1C(C)(C)C#N` [I-32], the mortality at 500 ppm with Nephotettix virescens and in the assay on Aphis craccivora was at least 75% each time. The mortality at 10 ppm in the assay on Myzus persicae, with Aphis gossypii and in the assay on Bemisia argentifolii was at least 75% in each case. For the same compound, the mortality at 0.3 ppm in the assay on Aphis craccivora was 100%. The mortality at 2500 ppm in the assay with Megoura viciae is at least 75%. Besides, the mortality at 3 ppm in the assay on Aphis gossypii is 90%. The mortality at 1 ppm in the assay on Bemisia argentifolii amounted to 100%.
`CCN(C(=O)c1cnn(C(C)C)c1C)c1ccnnc1` [#5 of Table 98 in WO10/034737, reference compound]: the “feeding damage (FD)” value in the assay on Plutella xylostella turned out to be 100%. Also, in the assay with Dichromothrips corbetti, the mortality at 500 ppm worked out at 0%. Further, in the assay with Bemisia argentifolii, the mortality at 1 ppm came out at 0% and the mortality at 3 ppm worked out at 0%.
Regarding `Cc1c(C(=O)Nc2ccnnc2)cnn1C(C(F)(F)F)C(F)(F)F` [I-34, 5-methyl-1-(2,2,2-trifluoro-1-trifluoromethyl-ethyl)-1H-pyrazole-4-carboxylic acid pyridazin-4-ylamide], in the assay with Myzus persicae, the mortality at 10 ppm is at least 75%. Moreover, in the assay with Aphis craccivora, the mortality at 500 ppm is at least 75%. Further, in the assay on Megoura viciae, the mortality at 2500 ppm is at least 75%.
